Measurements published in patent publication US20160000796A1, “PHARMACEUTICAL COMPOSITION FOR USE IN PREVENTION OR TREATMENT OF CANCER” (priority 2013, published 2016).

What was measured:
[1] = system: HOP—62 (lung cancer cell line lacking TDP1 expression); assay: Cellular proliferation (MTS) of lung cancer cell line HOP—62; assay type: cell-based; conditions: 100, 200 or 300 μM, 72 hours
Protocol: Lung cancer cell lines lacking TDP1 expression, HOP—62 and NCI_H522, were used. NCI_H1299, a lung cancer cell line expressing TDP1, was used as a control. HOP—62 and NCI_H522 were provided by Dr. Pommier (DNA Repair. 2014 January; 13: 1-9).
Abacavir was added to each of the cell lines at a concentration of 0 μM (DMSO was added instead of abacavir), 100 μM, 200 μM or 300 μM. The cells were seeded on a 96-well plate at a concentration of 3×10^3 cells/100 μL/well and cultured for 4 hours or 72 hours. After the culture of a predetermined time, MTS assay was performed using a reagent for cellular proliferation, test, Aqueous One Solution Cell Proliferation (trade name, manufactured by Promega), in the same manner as in Example 1. The cellular proliferation was represented by a ratio relative to that of the control (solvent control) on Day 0 that was regarded as 100%.

[2] = system: ATL cell line, ED40515 (−); assay: Chromosome double-strand break (Giemsa chromosome specimens), ED40515 (−); assay type: cell-based; conditions: 48 hours, abacavir 10-100 μM, zidovudine 10 or 100 μM
Protocol: Abacavir was added to an ATL cell line, ED40515 (−), at a concentration of 0 μM (DMSO was added instead of abacavir), 10 μM, 25 μM, 50 μM, 75 μM or 100 μM. After the 48 hours culture, the cells were fixed by Carnoy and stained with Giemsa to prepare chromosome specimens in accordance with conventional methods. Similarly, zidovudine was added to ED40515 (−) at a concentration of 10 μM or 100 μM, and abacavir was added to a non-ATL cell line, Jurkat, at a concentration of 100 μM, and chromosome specimens were prepared. Chromosome images (100 or more images per group) were observed by an optical microscope. The cells were determined as being positive for double-strand break (DSB) when at least one chromosome break was found.

[3] = system: ED40515 (−) (non-virus-producing ATL cell line); assay: Cellular proliferation (MTS assay), ED40515 (−); assay type: cell-based
Protocol: (§1) Each nucleoside analogue reverse transcriptase inhibitor was added to the medium for cells at a final concentration of 100 μM. Cells were seeded on a 96-well plate at a concentration of 1×10^4 cells/100 μL/well and cultured for 4 hours (Day 0), 48 hours (Day 2) or 96 hours (Day 4). A medium added DMSO (solvent control) alone was used as a control. Cellular proliferation was examined by MTS assay. Specifically, after the cells were cultured for a predetermined time, a reagent for cellular proliferation test, Aqueous One Solution Cell Proliferation (trade name, manufactured by Promega), was added to the cells. Four hours later, absorbance at 490 nm was measured. The cellular proliferation was represented by a ratio relative to that of the control (solvent control) on Day 0 that was regarded as 1.
(§2) This example used HTLV-1-infected cell lines (non-virus-producing ATL cell lines): ED40515 (−), ED40515 (+), and ATL43T (all were provided by Prof. Michiyuki Maeda who produced the cells); and SYK-11L (+) (prepared in the laboratory of the inventors).
(§3) The six types of nucleoside analogue reverse transcriptase inhibitors as used in Example 1 were used and cellular proliferation was examined in the same manner as in Example 1. […]

[4] = system: ED40515 (+) (non-virus-producing ATL cell line); assay: Cellular proliferation (MTS assay), ED40515 (+); assay type: cell-based
Protocol: as §1, §2, §3

HTLV-1 = conditions: Non Patent Literature 5; cited from earlier work
[5] = system: Jurkat (non-HTLV-1-infected cell line); assay: Cellular proliferation (MTS assay), Jurkat; assay type: cell-based, human; conditions: 100 μM
Protocol: as §1
(§4) This example used non-HTLV-1-infected cell lines: Jurkat (cell line derived from human T-cell leukemia, ATCC No: TIB-152), Kit225 (cell line derived from chronic T-cell leukemia, established in the laboratory of the inventors, Blood. 1987 October; 70 (4): 1069-72.), H9 (cell line derived from cutaneous T-cell lymphoma, ATCC No: HTB-176) and SUDHL6 (cell line derived from diffuse B cell lymphoma).
(§5) The six types of nucleoside analogue reverse transcriptase inhibitors as used in Example 1 were used and cellular proliferation was examined in the same manner as in Example 1.

[6] = system: DT40-derived mutants each lacking a DNA repair enzyme; assay: Cellular proliferation of DT40-derived mutants (CellTiter-Glo ATP method); assay type: cell-based, chicken; conditions: 25 μM, 48 hours
Source text: This example used wild-type DT40, which is a chicken B cell-derived cell line, and DT40-devired mutants each lacking a DNA repair enzyme. Those cell lines are available from the laboratory of Radiation Genetics, Graduate School of Medicine and Faculty of Medicine Kyoto University (see, Literatures: (1) Mol Cell Biol. 2001 April; 21 (8): 2858-66. (2) PLoS Genet. 2011 July; 7 (7): e1002148. (3) Mol Cell Biol. 2008 October; 28 (19): 6113-22. (4) J Biol Chem. 2012 Apr. 13; 287 (16): 12848-57.).
Abacavir was added to the medium of each cell line at a final concentration of 25 μM. The cells were seeded on a 96-well plate at a concentration of 1×10^4 cells/100 μL/well and cultured for 48 hours. After the culture, cellular proliferation was determined by CellTiter-Glo Luminescent Cell Viability Assay (trade name, manufactured by Promega) in accordance with the ATP method.
Specifically, the value on the vertical axis is −1 when the proliferation rate compared to the wild-type is 50%, and −2 when the proliferation rate compared to the wild-type is 25%.

[7] = system: ATL43T (non-virus-producing ATL cell line); assay: Cellular proliferation (MTS assay), ATL43T; assay type: cell-based
Protocol: as §1, §2, §3

[8] = system: H9 (non-HTLV-1-infected cell line); assay: Cellular proliferation (MTS assay), H9; assay type: cell-based; conditions: 100 μM
Protocol: as §1, §4, §5

Nc1nc(NC2CC2)c2ncn([C@H]3C=C[C@@H](CO)C3)c2n1 [abacavir, (−)-(1S,4R)-4-[2-amino-6-(cyclopropylamino)-9H-purin-9-yl]-2-cyclopentene-1-methanol]
cellular proliferation [1]: suppressed cellular proliferation of HOP—62 and NCI_H522 lacking TDP1 expression in a concentration dependent manner | ratio of double-strand break-positive cells [2]: increased the ratio of double-strand break-positive cells in a dose-dependent manner | cellular proliferation ([3]; 100 μM): strong suppressive effect | cellular proliferation, dose dependence ([3]; 10-100 μM, Day 0, 2, 4): suppressed cellular proliferation of all the cell lines in a dose-dependent manner | cellular proliferation ([4]; 100 μM): strong suppressive effect | cellular proliferation, dose dependence ([4]; 10-100 μM, Day 0, 2, 4): suppressed cellular proliferation of all the cell lines in a dose-dependent manner | anti-HTLV-1 effect (HTLV-1): anti-HTLV-1 effect | cellular proliferation [5]: did not exhibit a suppressive effect | cellular proliferation relative to wild-type DT40 (Log2 Gene/WT) ([6]; DT40 mutant lacking BRCA1): showed a suppressive effect | cellular proliferation relative to wild-type DT40 (Log2 Gene/WT) ([6]; DT40 mutant lacking GEN1): showed a suppressive effect | cellular proliferation relative to wild-type DT40 (Log2 Gene/WT) ([6]; DT40 mutant lacking PCNA): showed a suppressive effect | cellular proliferation relative to wild-type DT40 (Log2 Gene/WT) ([6]; DT40 mutant lacking TDP1): showed a suppressive effect | cellular proliferation relative to wild-type DT40 (Log2 Gene/WT) ([6]; DT40 mutant lacking XRCC2): showed a suppressive effect | cellular proliferation ([7]; 100 μM): strong suppressive effect | cellular proliferation, dose dependence ([7]; 10-100 μM, Day 0, 2, 4): suppressed cellular proliferation of all the cell lines in a dose-dependent manner | cellular proliferation [8]: did not exhibit a suppressive effect
